Where two headings read alike, the source gives them in different places.
What was measured:
[1] = test system: amphetamine-induced hyperactivity; conditions: Rattus norvegicus, sc, 1 h, read-out: ED50 Hyperactivity
stereotypy:hyperactivity = stereotypy:hyperactivity ED50 ratio (typical versus atypical neuroleptic profile); type: in vivo, male Sprague-Dawley rats; conditions: for Ratio: stereotypy:hyperactivity ED50 ratio, greater than ten considered clozapine like atypical; for neuroleptic profile: in words, stereotypy versus hyperactivity models
Description: The ratios of the ED50 's determined in the assay systems described above are predictive of typical versus atypical profiles for potential neuroleptic candidates.
A compound encompassed within the disclosure of French patent application No. 71.27825 was synthesized and evaluated using the assays described above. This prior art compound is designated Compound A for purposes of comparison and has the formula: [drawing 12]

[2] = test system: apomorphine-induced stereotypy; assay: Antagonism of Apomorphine-Induced Stereotypy; conditions: Rattus norvegicus, sc, 1 h, read-out: ED50 Stereotypy
[3] = cited from earlier work

SMILES	ED50 [1] [mg/kg]	Ratio (stereotypy:hyperactivity)	ED50 [2] [mg/kg]	incidence of extrapyramidal side effects ([3]; in vivo)	incidence of extrapyramidal side effects ([3]; in words, than classical neuroleptics, background)	neuroleptic profile (stereotypy:hyperactivity)
Cc1ccc2c(c1)CC(N1CC3CCC(C1)N3C)c1ccccc1O2.O=C(O)/C=C\C(=O)O (stereo not shown) [Compound 2, 3-(2-Methyl-10,11-dihydro-dibenzo[b,f]oxepin-10-yl)-8-methyl-3,8-diazabicyclo(3.2.1)octane monomaleate]	0.41	31	12.7	–	–	–
CCN1CCCC1CNC(=O)c1cc(S(N)(=O)=O)ccc1OC (stereo not shown) [sulpiride]	–	–	–	lesser incidence of extrapyramidal side effects than classical neuroleptics	–	–
CN1CCN(C2=Nc3cc(Cl)ccc3Nc3ccccc32)CC1 [Clozapine]	1.49	18	26.9	–	lesser incidence of extrapyramidal side effects than classical neuroleptics	clozapine-like atypical antipsychotic profiles
CN1C2CCC1CN(C1Cc3cc(Br)ccc3Oc3ccccc31)C2.O=C(O)/C=C\C(=O)O (stereo not shown) [Compound 3, 3-(2-Bromo-10,11-dihydro-dibenzo[b,f]oxepin-10-yl)-8-methyl-3,8-diazabicyclo(3.2.1)octane monomaleate]	2.15	> 10	> 22	–	–	–
CCN1CCC[C@H]1CNC(=O)c1c(O)c(Cl)cc(Cl)c1OC [Raclopride]	0.048	0.92	0.044	–	–	–
CN1CCN([C@@H]2Cc3ccccc3Sc3ccc(Cl)cc32)CC1 [R-Octoclothepin]	0.8	4.4	0.18	–	–	–
O=C(CCCN1CCC(O)(c2ccc(Cl)cc2)CC1)c1ccc(F)cc1 [Haloperidol]	0.038	0.94	0.036	–	–	–
CN1C2CCC1CN(C1Cc3ccccc3Oc3ccc(Cl)cc31)C2 (stereo not shown) [Prior Art Cpd A]	0.22	3.1	0.69	–	–	typical neuroleptic profile which is comparable to conventional neuroleptic agents
CN1C2CCC1CN(C1Cc3cc(Cl)ccc3Oc3ccccc31)C2.O=C(O)/C=C\C(=O)O (stereo not shown) [Compound 1, 3-(2-Chloro-10,11-dihydro-dibenzo[b,f]oxepin-10-yl)-8-methyl-3,8-diazabicyclo(3.2.1)octane monomaleate]	0.84	> 48	> 40	–	–	–

From patent US5952501A, “Certain tricyclic substituted diazabicylo[3.2.1] octane derivatives” (priority 1995, dated 1999)
